Results on two molecules are retold here after US20210205329A1 (The University of North Carolina at Chapel Hill, priority 2018, published 2021).

Holding throughout (format): cell-based
For one experiment, the target named is T1, TLR4/MD-2 complex (Mus musculus, UniProt Q9QUK6).
T1 construct: protein extracts were collected 24 hrs post-treatment and immunoprecipitated with antibody to TLR4; endogenous in cells; host or cells: RAW264.7
T1 sequence (Q9QUK6 26-835): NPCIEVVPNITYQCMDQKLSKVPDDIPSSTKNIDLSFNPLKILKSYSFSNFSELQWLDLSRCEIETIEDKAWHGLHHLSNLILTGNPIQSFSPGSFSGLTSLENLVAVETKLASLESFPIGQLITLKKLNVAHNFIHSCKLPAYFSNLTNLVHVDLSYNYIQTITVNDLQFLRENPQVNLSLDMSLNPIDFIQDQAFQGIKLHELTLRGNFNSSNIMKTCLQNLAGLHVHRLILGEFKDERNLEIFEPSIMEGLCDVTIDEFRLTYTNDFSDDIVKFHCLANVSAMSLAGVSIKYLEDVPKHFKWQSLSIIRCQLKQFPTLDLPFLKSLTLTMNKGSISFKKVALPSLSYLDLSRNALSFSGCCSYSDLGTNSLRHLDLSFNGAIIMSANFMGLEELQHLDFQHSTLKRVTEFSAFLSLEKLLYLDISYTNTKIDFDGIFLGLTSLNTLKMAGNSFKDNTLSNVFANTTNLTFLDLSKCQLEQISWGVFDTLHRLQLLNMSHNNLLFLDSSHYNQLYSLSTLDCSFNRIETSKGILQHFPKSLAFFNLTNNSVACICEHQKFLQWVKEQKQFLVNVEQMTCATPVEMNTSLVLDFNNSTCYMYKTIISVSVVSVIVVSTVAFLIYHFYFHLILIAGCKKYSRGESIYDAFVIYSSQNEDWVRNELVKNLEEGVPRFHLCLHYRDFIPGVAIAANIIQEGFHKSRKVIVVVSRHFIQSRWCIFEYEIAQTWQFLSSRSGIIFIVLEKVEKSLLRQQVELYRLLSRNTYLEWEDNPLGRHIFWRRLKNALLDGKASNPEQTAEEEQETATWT
In words: TLR4/MD-2 co-immunoprecipitation in LPS-treated RAW264.7 cells. As to conditions: 1.0 μM; LPS 1 μg/ml; 24 hrs post-treatment. On the procedure: (§1) Co-Immunoprecipitation Assay RAW264.7 cells [treated with LPS (1 μg/ml), 3α,5α-THP (1 μM) or pregnenolone (1 μM)] were exposed to chemical protein crosslinking (Poulopoulos et al, 2009) at 24 hrs post-treatment. Briefly, the cells were incubated (20 min on ice) with 1 mM of the cleavable, membrane-permeable crosslinker DSP (Thermo Fisher Scientific, Cat. #PG82081). Rat VTA homogenates were incubated (20 min on ice) with 200 μM of DSP. The crosslinker was quenched in 1 M Tris buffer (pH 7.5) (to a final concentration of 10-20 mM), and the material was centrifuged at 21,000×g for 15 min. Proteins from the cells were extracted with Pierce IP Lysis Buffer (Thermo Fisher Scientific, Cat. #87787) supplemented with protease and phosphatase inhibitor cocktails (Sigma). Proteins from the VTA were extracted with CelLytic MT (dialyzable mild detergent, bicine and 150 mM NaCl; Sigma Aldrich, St. Louis, Mo., USA, Cat. #C3228) supplemented with protease and phosphatase inhibitor cocktails (Sigma) according to the manufacturers instructions. […]

In another experiment the target is T2, TLR2/MD-2 interaction (Mus musculus, UniProt Q9QUN7).
T2 construct: endogenous in cells; host or cells: RAW264.7
T2 sequence (Q9QUN7 25-784): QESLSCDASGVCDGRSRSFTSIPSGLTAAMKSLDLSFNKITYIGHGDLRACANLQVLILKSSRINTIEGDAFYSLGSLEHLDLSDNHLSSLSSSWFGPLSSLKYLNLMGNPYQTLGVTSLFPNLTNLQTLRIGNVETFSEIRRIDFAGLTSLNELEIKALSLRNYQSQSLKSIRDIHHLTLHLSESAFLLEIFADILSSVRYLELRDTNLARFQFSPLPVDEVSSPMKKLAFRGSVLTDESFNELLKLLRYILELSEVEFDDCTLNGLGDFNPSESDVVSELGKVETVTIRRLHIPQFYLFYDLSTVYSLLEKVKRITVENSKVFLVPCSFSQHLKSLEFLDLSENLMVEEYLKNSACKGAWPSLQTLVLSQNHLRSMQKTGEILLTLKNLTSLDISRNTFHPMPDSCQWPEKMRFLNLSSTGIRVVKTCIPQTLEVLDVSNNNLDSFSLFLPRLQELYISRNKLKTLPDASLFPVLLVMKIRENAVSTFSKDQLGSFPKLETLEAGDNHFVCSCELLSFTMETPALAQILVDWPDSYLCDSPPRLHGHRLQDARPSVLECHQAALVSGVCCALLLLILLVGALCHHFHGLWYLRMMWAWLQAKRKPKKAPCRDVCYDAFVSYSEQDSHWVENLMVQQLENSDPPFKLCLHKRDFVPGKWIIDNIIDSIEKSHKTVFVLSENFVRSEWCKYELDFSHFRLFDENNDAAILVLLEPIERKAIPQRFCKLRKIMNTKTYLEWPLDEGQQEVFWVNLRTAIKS
In words: TLR2/MD-2 co-immunoprecipitation (negative control) in LPS-treated RAW264.7 cells. The note with it: 1.0 μM; LPS 1 μg/ml; 24 hrs post-treatment. The protocol:
as §1

The next experiment has as its system CX3CL1. In words: CX3CL1 expression in human macrophages. The note with it: 1 μM.

For `CC(=O)[C@H]1CC[C@H]2[C@@H]3CC[C@H]4C[C@H](O)CC[C@]4(C)[C@H]3CC[C@]12C` [3α,5α-THP, (3α,5α)3-hydroxypregnan-20-one], the “reduction of MD-2 co-precipitated with TLR4” value at TLR4/MD-2 complex is 45.4±6.9%. Moreover, the TLR2/MD-2 co-immunoprecipitation result on TLR2/MD-2 interaction is listed as “not altered”. For the same molecule, the “expression of the anti-inflammatory cytokine CX3CL1” value in the experiment with CX3CL1 was “increases expression”.
For the molecule `CC(=O)[C@H]1CC[C@H]2[C@@H]3CC=C4C[C@@H](O)CC[C@]4(C)[C@H]3CC[C@]12C` [pregnenolone], the “reduction of MD-2 co-precipitated with TLR4” value at TLR4/MD-2 complex was found to be 57.2±7.3%. Moreover, the TLR2/MD-2 co-immunoprecipitation result at TLR2/MD-2 interaction is given as “not altered”.
